Activity calls are given as the source filed them. No cut-off for these calls is given here.
How the values were obtained:
Mus musculus [1] = experiment: Anti-inflammatory activity against DSS-induced acute ulcerative colitis in C57BL/6 mouse model assessed as decrease in IL-1beta mRNA expression level in colon at 20 to 80 mg/kg, po QD for 6 days by RT-qPCR analysis; format: functional, organism-based; settings: dose 20-80 mg/kg, time 6.0 day
[2] = AUCt in Sprague-Dawley rat at 5 mg/kg, iv and measured upto 48 hrs by LC-MS/MS analysis; format: ADME, organism-based; parameters: dose 5 mg/kg, time < 48 hrs, route iv; settings: in vivo
[3] = Acute toxicity in BALB/c mouse assessed as changes in hematocrit level in blood at 600 mg/kg,po and measured after 14 days by hematology test; format: organism-based; settings: in vivo, 336 h, time 14 day
[4] = 1-octanol/water partition coefficient, logP of the compound at 2 mg by UPLC analysis; format: physicochemical
[5] = Acute toxicity in BALB/c mouse assessed as changes in neutrophil level in blood at 600 mg/kg,po and measured after 14 days by hematology test; format: organism-based; settings: in vivo, 336 h, time 14 day
[6] = Acute toxicity in BALB/c mouse assessed as changes in ALT level in serum at 600 mg/kg,po and measured after 14 days by Biochemistry analysis; format: organism-based; settings: in vivo, 336 h, time 14 day
Mus musculus [7] = experiment: Anti-inflammatory activity against DSS-induced acute ulcerative colitis in C57BL/6 mouse model assessed as increase in colon length at 20 mg/kg, po QD for 6 days (Rvb= 5.3cm); format: functional; settings: time 6 day
[8] = Apparent volume of distribution during terminal phase in Sprague-Dawley rat at 5 mg/kg, iv and measured upto 48 hrs by LC-MS/MS analysis; format: ADME, organism-based; settings: in vivo
[9] = Oral bioavailability in Sprague-Dawley rat at 15 mg/kg and measured upto 48 hrs by LC-MS/MS analysis; format: ADME, organism-based; settings: in vivo
Mus musculus [10] = experiment: Anti-inflammatory activity against DSS-induced acute ulcerative colitis in C57BL/6 mouse model assessed as increase in colon length at 40 mg/kg, po QD for 6 days (Rvb= 5.3cm); format: functional; settings: time 6 day
[11] = Acute toxicity in BALB/c mouse assessed as changes in WBC level in blood at 600 mg/kg,po and measured after 14 days by hematology test; format: organism-based; settings: in vivo, 336 h, time 14 day
[12] = AUCt in Sprague-Dawley rat at 15 mg/kg, po and measured upto 48 hrs by LC-MS/MS analysis; format: ADME, organism-based; parameters: dose 15 mg/kg, time < 48 hrs, route po; settings: in vivo
[13] = Metabolic stability in mouse liver microsomes assessed as half life at 3 uM incubated upto 90 mins in presence of NADPH by LC-MS/MS analysis; format: ADME, Microsome
Mus musculus [14] = experiment: Anti-inflammatory activity against DSS-induced acute ulcerative colitis in C57BL/6 mouse model assessed as decrease in colon length shortening at 40 mg/kg, po QD for 6 days (Rvb= 5.5cm); format: functional; settings: time 6 day
[15] = Acute toxicity in BALB/c mouse assessed as changes in UA level in serum at 600 mg/kg,po and measured after 14 days by Biochemistry analysis; format: organism-based; settings: in vivo, 336 h, time 14 day
Mus musculus [16] = experiment: Anti-inflammatory activity against DSS-induced acute ulcerative colitis in C57BL/6 mouse model assessed as decrease in IL-6 protein level in colon at 20 to 80 mg/kg, po QD for 6 days by ELISA; format: functional, organism-based; settings: dose 20-80 mg/kg, time 6.0 day
[17] = Acute toxicity in BALB/c mouse assessed as changes in ALB level in serum at 600 mg/kg,po and measured after 14 days by Biochemistry analysis; format: organism-based; settings: in vivo, 336 h, time 14 day
[18] = Acute toxicity in BALB/c mouse assessed as changes in CK level in serum at 600 mg/kg,po and measured after 14 days by Biochemistry analysis; format: organism-based; settings: in vivo, 336 h, time 14 day
[19] = Acute toxicity in BALB/c mouse assessed as tissue damage in kidney at 600 mg/kg,po and measured after 14 days by hematoxylin and eosin staining based microscopy; format: organism-based; settings: in vivo, 336 h, time 14 day
[20] = Acute toxicity in BALB/c mouse assessed as changes in platelet count in blood at 600 mg/kg,po and measured after 14 days by hematology test; format: organism-based; settings: in vivo, 336 h, time 14 day
[21] = Metabolic stability in rat liver microsomes assessed as intrinsic clearance at 3 uM incubated upto 90 mins in presence of NADPH by LC-MS/MS analysis; format: ADME, Microsome; settings: read-out: CLH
[22] = Acute toxicity in BALB/c mouse assessed as tissue damage in lung at 600 mg/kg,po and measured after 14 days by hematoxylin and eosin staining based microscopy; format: organism-based; settings: in vivo, 336 h, time 14 day
Mus musculus [23] = experiment: Anti-inflammatory activity against DSS-induced acute ulcerative colitis in C57BL/6 mouse model assessed as decrease in IL-6 mRNA expression level in colon at 40 mg/kg, po QD for 6 days by RT-PCR analysis; format: functional, organism-based; settings: time 6.0 day
Mus musculus [24] = experiment: Anti-inflammatory activity against DSS-induced acute ulcerative colitis in C57BL/6 mouse model assessed as decrease in IL-1beta production in colon at 40 mg/kg, po QD for 6 days by ELISA; format: functional; parameters: scale not given: the % may be the effect or the level left; settings: time 6 day
[25] = Drug distribution in colon of DSS-induced acute ulcerative colitis in C57BL/6 mouse model at 40 mg/kg,po and measured after 0.5 hrs by LC-MS/MS analysis; format: ADME, organism-based; settings: in vivo
[26] = Acute toxicity in BALB/c mouse assessed as changes in RBC level in blood at 600 mg/kg,po and measured after 14 days by hematology test; format: organism-based, Erythrocyte; settings: in vivo, 336 h, time 14 day
Mus musculus [27] = experiment: Anti-inflammatory activity against DSS-induced acute ulcerative colitis in C57BL/6 mouse model assessed as decrease in body weight loss at 40 mg/kg, po QD for 6 days (Rvb= -13.4%); format: functional; parameters: scale not given: the % may be the effect or the level left; settings: time 6 day
[28] = Cmax in Sprague-Dawley rat at 5 mg/kg, iv and measured upto 48 hrs by LC-MS/MS analysis; format: ADME, organism-based; parameters: time < 48 hrs, dose 5 mg/kg, route iv; settings: in vivo
[29] = Metabolic stability in mouse liver microsomes assessed as intrinsic clearance at 3 uM incubated upto 90 mins in presence of NADPH by LC-MS/MS analysis; format: ADME, Microsome; settings: read-out: CLH
[30] = Acute toxicity in BALB/c mouse assessed as changes in TP level in serum at 600 mg/kg,po and measured after 14 days by Biochemistry analysis; format: organism-based; settings: in vivo, 336 h, time 14 day
[31] = Clearance in Sprague-Dawley rat at 5 mg/kg, iv and measured upto 48 hrs by LC-MS/MS analysis; format: ADME, organism-based; settings: in vivo
[32] = Acute toxicity in BALB/c mouse assessed as changes in AST level in serum at 600 mg/kg,po and measured after 14 days by Biochemistry analysis; format: organism-based; settings: in vivo, 336 h, time 14 day
[33] = Acute toxicity in BALB/c mouse assessed as body weight loss at 600 mg/kg,po and measured for 14 days; format: organism-based; settings: in vivo, 336 h, time 14 day
[34] = Apparent volume of distribution during terminal phase in Sprague-Dawley rat at 15 mg/kg, po and measured upto 48 hrs by LC-MS/MS analysis; format: ADME, organism-based; settings: in vivo, read-out: Vz/F
[35] = Acute toxicity in BALB/c mouse assessed as tissue damage in heart at 600 mg/kg,po and measured after 14 days by hematoxylin and eosin staining based microscopy; format: organism-based; settings: in vivo, 336 h, time 14 day

## Nc1nc(-c2cn(Cc3c(F)cccc3Cl)c3ncccc23)ncc1C1CC1
Mus musculus [1]
  Activity: Dose-Dependent Effect
[2]
  AUC(0-t) at 48 h: 17900 ng·h/mL
[3]
  Activity: Non-Toxic
[4]
  logP: 5.3
[5]
  Activity: Non-Toxic
[6]
  Activity: Non-Toxic
Mus musculus [7]
  Activity: 6.1 cm
[8]
  Vz/F: 1.05 L/kg
[9]
  bioavailability: 21.7%
Mus musculus [10]
  Activity: 6.7 cm
[11]
  Activity: Non-Toxic
[12]
  AUC(0-t) at 48 h: 11600 ng·h/mL
[13]
  half-life at 3 µM: 9.4 min
Mus musculus [14]
  Activity: 7 cm
[15]
  Activity: Non-Toxic
Mus musculus [16]
  Activity: Dose-Dependent Effect
[17]
  Activity: Non-Toxic
[18]
  Activity: Non-Toxic
[19]
  Activity: Non-Toxic
[20]
  Activity: Non-Toxic
[21]
  CLint scaled at 3 µM: 319 mL/min/kg
[22]
  Activity: Non-Toxic
Mus musculus [23]
  Activity: Active
Mus musculus [24]
  Activity: 84.32%
[25]
  Drug uptake: Active
[26]
  Activity: Non-Toxic
Mus musculus [27]
  Activity: -4.2%
[28]
  Cmax: 12300 ng/mL
[29]
  CLint scaled at 3 µM: 581 mL/min/kg
[30]
  Activity: Non-Toxic
[31]
  clearance: 5 mL/min/kg
[32]
  Activity: Non-Toxic
[33]
  Activity: Non-Toxic
[34]
  Vd/F: 2.95 L/kg
[35]
  Activity: Non-Toxic
